From patent US20230278972A1, “SUBSTITUTED HALOALKYL SULFONANILIDE HERBICIDES” (FMC Corporation, priority 2020, published 2023)

Columns and labels:
Format in all cases: in vivo
soybean (Glycine max) [1] = assay: Test A1 postemergence, soybean; details: 0 to 100 scale (0 no effect, 100 complete control); for Soybean plant response rating: 31 g ai/ha, postemergence; for Plant response rating, Soybean: Postemergence, 125 g ai/ha, 10 days
Procedure, shortened: (§1)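 Both timings started from seed in a loam-sand blend. Preemergence pots got a directed soil application immediately; postemergence pots were sprayed when seedlings had one or two leaves and stood 2–10 cm. Each compound was prepared in a non-phytotoxic solvent plus surfactant.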

[2] = tested on: Ryegrass, Italian (Italian ryegrass, Lolium multiflorum); assay: Test A1 preemergence, Ryegrass, Italian
Procedure, shortened: (§2)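 Test compounds were formulated in a non-phytotoxic solvent mixture containing a surfactant. For preemergence, seeds sown in a loam soil–sand blend received a directed soil spray. For postemergence, potted plants in the same soil, 2 to 10 cm tall at the one- to two-leaf stage, were sprayed.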

[3] = tested on: Oat, Wild (wild oat, Avena fatua); assay: Test A1 preemergence, Oat, Wild
Procedure, shortened: as §2

[4] = tested on: galium (catchweed bedstraw, Galium aparine); assay: Test A1 postemergence, galium; details: 0 to 100 scale (0 no effect, 100 complete control); for Galium plant response rating: 31 g ai/ha, postemergence; for Plant response rating, Galium: Postemergence, 125 g ai/ha, 10 days
Procedure, shortened: as §1

[5] = tested on: Foxtail, Giant (giant foxtail, Setaria faberi); assay: Test A1 postemergence, Foxtail, Giant; details: 0 to 100 scale (0 no effect, 100 complete control); for Foxtail, Giant plant response rating: 31 g ai/ha, postemergence; for Plant response rating, Foxtail, Giant: Postemergence, 125 g ai/ha, 10 days
Procedure, shortened: as §1

[6] = tested on: horseweed (Erigeron canadensis); assay: Test A1 postemergence, horseweed; details: 0 to 100 scale (0 no effect, 100 complete control); for Horseweed plant response rating: 31 g ai/ha, postemergence
Excerpt: Seeds of plant species selected from, blackgrass (Alopecurus myosuroides), corn (Zea mays), Foxtail, Giant (giant foxtail, Setaria faberi), goosegrass (Eleusine indica), kochia (Bassia scoparia), Oat, Wild (wild oat, Avena fatua), Pigweed, Palmer (palmer amaranth, palmer pigweed, Amaranthus palmeri), ragweed (common ragweed, Ambrosia artemisiifolia), Ryegrass, Italian (Italian ryegrass, Lolium multiflorum), soybean (Glycine max), and wheat (Triticum aestivum) were planted into a blend of loam soil and sand and treated preemergence with a directed soil spray using test chemicals formulated in a non-phytotoxic solvent mixture which included a surfactant. At the same time, plants selected from these crop and weed species and also galium (catchweed bedstraw, Galium aparine) and horseweed (Erigeron canadensis) were planted in pots containing the same blend of loam soil and sand and treated with postemergence applications of test chemicals formulated in the same manner. Plants ranged in height from 2 to 10 cm and were in the one- to two-leaf stage for the postemergence treatment. […] A dash (-) response means no test result.

[7] = tested on: blackgrass (Alopecurus myosuroides); assay: Test A1 postemergence, blackgrass; details: 0 to 100 scale (0 no effect, 100 complete control); for Blackgrass plant response rating: 31 g ai/ha, postemergence; for Plant response rating, Blackgrass: Postemergence, 125 g ai/ha, 10 days
Procedure, shortened: as §1

[8] = tested on: goosegrass (Eleusine indica); assay: Test A1 preemergence, goosegrass
Procedure, shortened: as §2

[9] = tested on: Foxtail, Giant (giant foxtail, Setaria faberi); assay: Test A1 preemergence, Foxtail, Giant
Procedure, shortened: as §2

[10] = tested on: barnyardgrass (Echinochloa crus-galli); assay: Test B1 flooded paddy test, barnyardgrass; details: 250 g ai/ha, Flood, applied to paddy water, 2-leaf stage, visually evaluated after 10 to 14 days
Excerpt: (§3) A dash (-) response means no test result.

[11] = tested on: ragweed (common ragweed, Ambrosia artemisiifolia); assay: Test A1 postemergence, ragweed; details: 0 to 100 scale (0 no effect, 100 complete control); for Ragweed plant response rating: 31 g ai/ha, postemergence; for Plant response rating, Ragweed: Postemergence, 125 g ai/ha, 10 days
Procedure, shortened: (§4)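 Plants were grown in a loam soil/sand blend, with test chemicals formulated in a non-phytotoxic solvent mixture containing surfactant. Preemergence treatment (corn) was a directed soil spray at planting. Postemergence treatment was applied to plants 2 to 10 cm tall at the one- to two-leaf stage.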

corn (Zea mays) [12] = assay: Test A1 postemergence, corn; details: 0 to 100 scale (0 no effect, 100 complete control); for Corn plant response rating: 31 g ai/ha, postemergence; for Plant response rating, Corn: Postemergence, 125 g ai/ha, 10 days
Procedure, shortened: as §2

[13] = tested on: goosegrass (Eleusine indica); assay: Test A1 postemergence, goosegrass; details: 0 to 100 scale (0 no effect, 100 complete control); for Goosegrass plant response rating: 31 g ai/ha, postemergence; for Plant response rating, Goosegrass: Postemergence, 125 g ai/ha, 10 days
Procedure, shortened: as §1

[14] = tested on: wheat (Triticum aestivum); assay: Test A1 preemergence, wheat
Procedure, shortened: as §2

[15] = tested on: Oat, Wild (wild oat, Avena fatua); assay: Test A1 postemergence, Oat, Wild; details: 0 to 100 scale (0 no effect, 100 complete control); for Oat, Wild plant response rating: 31 g ai/ha, postemergence; for Plant response rating, Oat, Wild: Postemergence, 125 g ai/ha, 10 days
Procedure, shortened: as §4

[16] = tested on: Pigweed, Palmer (palmer amaranth, palmer pigweed, Amaranthus palmeri); assay: Test A1 postemergence, Pigweed, Palmer; details: 0 to 100 scale (0 no effect, 100 complete control); for Pigweed, Palmer plant response rating: 31 g ai/ha, postemergence; for Plant response rating, Pigweed, Palmer: Postemergence, 125 g ai/ha, 10 days
Procedure, shortened: as §4

kochia (Bassia scoparia) [17] = assay: Test A1 preemergence, kochia
Procedure, shortened: as §2

soybean (Glycine max) [18] = assay: Test A1 preemergence, soybean
Procedure, shortened: as §2

rice (Oryza sativa) = assay: Test B1 flooded paddy test, rice; details: 250 g ai/ha, Flood, applied to paddy water, 2-leaf stage, visually evaluated after 10 to 14 days
Excerpt: as §3

[19] = tested on: ragweed (common ragweed, Ambrosia artemisiifolia); assay: Test A1 preemergence, ragweed
Procedure, shortened: as §2

[20] = tested on: wheat (Triticum aestivum); assay: Test A1 postemergence, wheat; details: 0 to 100 scale (0 no effect, 100 complete control); for Wheat plant response rating: 31 g ai/ha, postemergence; for Plant response rating, Wheat: Postemergence, 125 g ai/ha, 10 days
Procedure, shortened: as §1

[21] = tested on: ducksalad (Heteranthera limosa); assay: Test B1 flooded paddy test, ducksalad; details: 250 g ai/ha, Flood, applied to paddy water, 2-leaf stage, visually evaluated after 10 to 14 days
Excerpt: as §3

corn (Zea mays) [22] = assay: Test A1 preemergence, corn
Procedure, shortened: as §4

[23] = tested on: Pigweed, Palmer (palmer amaranth, palmer pigweed, Amaranthus palmeri); assay: Test A1 preemergence, Pigweed, Palmer
Procedure, shortened: as §2

kochia (Bassia scoparia) [24] = assay: Test A1 postemergence, kochia; details: 0 to 100 scale (0 no effect, 100 complete control); for Kochia plant response rating: 31 g ai/ha, postemergence; for Plant response rating, Kochia: Postemergence, 125 g ai/ha, 10 days
Procedure, shortened: as §1

[25] = tested on: Ryegrass, Italian (Italian ryegrass, Lolium multiflorum); assay: Test A1 postemergence, Ryegrass, Italian; details: 0 to 100 scale (0 no effect, 100 complete control); for Ryegrass, Italian plant response rating: 31 g ai/ha, postemergence; for Plant response rating, Ryegrass, Italian: Postemergence, 125 g ai/ha, 10 days
Procedure, shortened: as §1

[26] = 31 g ai/ha, 0 to 100 scale (0 no effect, 100 complete control)
[27] = 125 g ai/ha, 0 to 100 scale, 0 no effect, 100 complete control
[28] = 125 g ai/ha, 0 to 100 scale (0 no effect, 100 complete control)

Cc1cc(C)c(C2=NOC(C(C)C)C2)cc1NS(=O)(=O)C(F)(F)F (stereo not shown) [Compound 381]
Soybean plant response rating (soybean (Glycine max) [1]): 50
Plant response rating, Soybean (soybean (Glycine max) [1]): 60
Plant response rating, Ryegrass, Italian [2, 26]: 50
Plant response rating, Ryegrass, Italian [2, 27]: 90
Plant response rating, Oat, Wild [3, 26]: 50
Plant response rating, Oat, Wild [3, 27]: 80
Galium plant response rating [4]: 0
Plant response rating, Galium [4]: 50
Foxtail, Giant plant response rating [5]: 0
Plant response rating, Foxtail, Giant [5]: 50
Horseweed plant response rating [6]: 0
Plant response rating, Horseweed ([6]; Postemergence, 125 g ai/ha, 10 days): 30
Blackgrass plant response rating [7]: 0
Plant response rating, Blackgrass [7]: 70
Plant response rating, Goosegrass [8, 26]: 30
Plant response rating, Goosegrass [8, 27]: 100
Plant response rating, Foxtail, Giant [9, 26]: 20
Plant response rating, Foxtail, Giant [9, 27]: 100
Plant response rating, Barnyardgrass (0 to 100 scale, 0 is no effect, 100 is complete control) [10]: 70
Ragweed plant response rating [11]: 0
Plant response rating, Ragweed [11]: 50
Corn plant response rating (corn (Zea mays) [12]): 0
Plant response rating, Corn (corn (Zea mays) [12]): 20
Goosegrass plant response rating [13]: 0
Plant response rating, Goosegrass [13]: 50
Plant response rating, Wheat [14, 26]: 40
Plant response rating, Wheat [14, 27]: 90
Oat, Wild plant response rating [15]: 0
Plant response rating, Oat, Wild [15]: 20
Pigweed, Palmer plant response rating [16]: 0
Plant response rating, Pigweed, Palmer [16]: 10
Plant response rating, Kochia (kochia (Bassia scoparia) [17]; [26]): 0
Plant response rating, Kochia (kochia (Bassia scoparia) [17]; [27]): 60
Plant response rating, Soybean (soybean (Glycine max) [18]; [26]): 0
Plant response rating, Soybean (soybean (Glycine max) [18]; [27]): 50
Plant response rating, Rice (0 to 100 scale, 0 is no effect, 100 is complete control) (rice (Oryza sativa)): 0
Plant response rating, Ragweed [19, 26]: 0
Plant response rating, Ragweed [19, 27]: 0
Wheat plant response rating [20]: 20
Plant response rating, Wheat [20]: 70
Plant response rating, Ducksalad (0 to 100 scale, 0 is no effect, 100 is complete control) [21]: 50
Plant response rating, Corn (corn (Zea mays) [22]; [26]): 0
Plant response rating, Corn (corn (Zea mays) [22]; [27]): 70
Plant response rating, Pigweed, Palmer [23, 26]: 30
Plant response rating, Pigweed, Palmer [23, 27]: 90
Kochia plant response rating (kochia (Bassia scoparia) [24]): 0
Plant response rating, Kochia (kochia (Bassia scoparia) [24]): 20
Ryegrass, Italian plant response rating [25]: 0
Plant response rating, Ryegrass, Italian [25]: 0

Cc1cc(C)c(N2Cc3cccc(Br)c3C2=O)cc1NS(=O)(=O)Cl [Compound 415]
Soybean plant response rating (soybean (Glycine max) [1]): 10
Plant response rating, Soybean (soybean (Glycine max) [1]): 30
Plant response rating, Ryegrass, Italian [2, 28]: 70
Plant response rating, Oat, Wild [3, 28]: 80
Galium plant response rating [4]: 60
Plant response rating, Galium [4]: 90
Foxtail, Giant plant response rating [5]: 0
Plant response rating, Foxtail, Giant [5]: 30
Horseweed plant response rating [6]: 60
Blackgrass plant response rating [7]: 0
Plant response rating, Blackgrass [7]: 40
Plant response rating, Goosegrass [8, 26]: 90
Plant response rating, Goosegrass [8, 28]: 100
Plant response rating, Foxtail, Giant [9, 26]: 80
Plant response rating, Foxtail, Giant [9, 28]: 90
Plant response rating, Barnyardgrass (0 to 100 scale, 0 is no effect, 100 is complete control) [10]: 85
Ragweed plant response rating [11]: 30
Plant response rating, Ragweed [11]: 70
Corn plant response rating (corn (Zea mays) [12]): 0
Plant response rating, Corn (corn (Zea mays) [12]): 50
Goosegrass plant response rating [13]: 70
Plant response rating, Goosegrass [13]: 90
Plant response rating, Wheat [14, 28]: 50
Oat, Wild plant response rating [15]: 10
Plant response rating, Oat, Wild [15]: 30
Pigweed, Palmer plant response rating [16]: 0
Plant response rating, Pigweed, Palmer [16]: 20
Plant response rating, Kochia (kochia (Bassia scoparia) [17]; [26]): 10
Plant response rating, Kochia (kochia (Bassia scoparia) [17]; [28]): 60
Plant response rating, Soybean (soybean (Glycine max) [18]; [28]): 0
Plant response rating, Rice (0 to 100 scale, 0 is no effect, 100 is complete control) (rice (Oryza sativa)): 10
Plant response rating, Ragweed [19, 28]: 90
Wheat plant response rating [20]: 20
Plant response rating, Wheat [20]: 70
Plant response rating, Ducksalad (0 to 100 scale, 0 is no effect, 100 is complete control) [21]: 65
Plant response rating, Corn (corn (Zea mays) [22]; [26]): 0
Plant response rating, Corn (corn (Zea mays) [22]; [27]): 80
Plant response rating, Pigweed, Palmer [23, 28]: 60
Kochia plant response rating (kochia (Bassia scoparia) [24]): 40
Plant response rating, Kochia (kochia (Bassia scoparia) [24]): 70
Ryegrass, Italian plant response rating [25]: 0
Plant response rating, Ryegrass, Italian [25]: 60
